The text below walks through data of US20250230193A1, “CYCLIC COMPOUND HAVING SELECTIVE KRAS INHIBITORY EFFECT ON HRAS AND NRAS” (CHUGAI SEIYAKU KABUSHIKI KAISHA, priority 2022, published 2025).

The test system of experiment [1] is human lung cancer strain NCI-H441. As to the kind of experiment: cells. The settings on record: NCI-H441, 96 h, read-out: NCI-H441 IC50 (nM).
In experiment [2] the target is GDP-bound NRAS wild-type protein (Homo sapiens, UniProt P01111). As to the kind of experiment: Binding to NRAS by surface plasmon resonance (SPR), Single Cycle Kinetics. The settings on record: SPR; KD ratio class. Background: In SPR one partner is held on a chip, and binding of the other changes the refractive index at the surface.
For experiment [3], the target named is GDP-bound HRAS wild-type protein (Homo sapiens, UniProt P01112). As to the kind of experiment: Binding to HRAS by surface plasmon resonance (SPR), Single Cycle Kinetics. The settings on record: SPR; KD ratio class.
Sequence of GDP-bound HRAS wild-type protein (P01112 whole entry): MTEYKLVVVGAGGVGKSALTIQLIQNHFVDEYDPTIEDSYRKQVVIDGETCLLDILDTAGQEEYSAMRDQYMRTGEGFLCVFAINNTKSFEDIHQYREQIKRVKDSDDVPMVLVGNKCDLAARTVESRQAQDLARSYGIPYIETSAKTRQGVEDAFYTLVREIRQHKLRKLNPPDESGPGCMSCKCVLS

Sequence of GDP-bound NRAS wild-type protein (P01111 whole entry): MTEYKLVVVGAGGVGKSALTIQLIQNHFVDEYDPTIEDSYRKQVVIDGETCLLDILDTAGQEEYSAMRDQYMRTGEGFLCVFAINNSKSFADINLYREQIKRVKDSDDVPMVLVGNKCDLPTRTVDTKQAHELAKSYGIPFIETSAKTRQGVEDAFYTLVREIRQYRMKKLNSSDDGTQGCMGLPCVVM

Consider `CCO[C@@H]1C[C@H]2C(=O)NC3(CCC3)C(=O)N(C)[C@@H](C(CC)CC)C(=O)N(C)[C@H](C)CC(=O)N(C)[C@@H](CC3CCCC3)C(=O)N[C@@H]([C@@H](C)CC)C(=O)N(C)CC(=O)N(C)[C@H]3C/C=C\CCN(C3=O)[C@@H](Cc3ccc(F)cc3C)C(=O)N(C)CC(=O)N[C@@H](CCc3cc(F)c(C(F)(F)F)c(F)c3)C(=O)N2C1` [PP1522], for which the 50% inhibitory concentration (IC50) (in general, the concentration needed to halve the response being measured) in experiment [1] stood at 567 nM. Moreover, in experiment [2], the “NRAS/KRAS (ratio of KD value for GDP-bound NRAS wild-type protein to KD value for KRAS)” value is “A (a compound having 10 or more and less than 20 is denoted as A)”. Moreover, the “HRAS/KRAS (ratio of KD value for GDP-bound HRAS wild-type protein to KD value for KRAS)” value in experiment [3] is “A (a compound having 10 or more and less than 20 is denoted as A)”.

For `CCO[C@@H]1C[C@H]2C(=O)NC3(CCC3)C(=O)N(C)[C@@H](C(CC)CC)C(=O)N(C)[C@H](C)CC(=O)N(C)[C@@H](CC(C)C)C(=O)N[C@@H]([C@@H](C)CC)C(=O)N(C)CC(=O)N(C)[C@H]3C/C=C\CCN(C3=O)[C@@H](Cc3ccc(F)cc3C)C(=O)N(C)CC(=O)N[C@@H](CCc3cc(F)c(C(F)(F)F)c(F)c3)C(=O)N2C1` [PP1524], the IC50 in experiment [1] was found to be 439 nM. Moreover, the “NRAS/KRAS (ratio of KD value for GDP-bound NRAS wild-type protein to KD value for KRAS)” value in experiment [2] was “B (a compound having 3 or more and less than 10 is denoted as B)”. In experiment [3], the “HRAS/KRAS (ratio of KD value for GDP-bound HRAS wild-type protein to KD value for KRAS)” value was “B (a compound having 3 or more and less than 10 is denoted as B)”.

Turning to `CCO[C@@H]1C[C@H]2C(=O)NC3(CCC3)C(=O)N(C)[C@@H](C(CC)CC)C(=O)N(C)[C@H](C)CC(=O)N(C)[C@@H](CC(C)C)C(=O)N[C@@H]([C@@H](C)CC)C(=O)N(C)CC(=O)N(C)[C@H]3C/C=C\CCN(C3=O)[C@@H](Cc3ccc(F)cc3)C(=O)N(C)CC(=O)N[C@@H](CCc3cc(F)c(C(F)(F)F)c(F)c3)C(=O)N2C1` [PP1525], the 50% inhibitory concentration (IC50) in experiment [1] was 132 nM. Also, the “NRAS/KRAS (ratio of KD value for GDP-bound NRAS wild-type protein to KD value for KRAS)” value in experiment [2] is “A (a compound having 10 or more and less than 20 is denoted as A)”. For the same compound, in experiment [3], the “HRAS/KRAS (ratio of KD value for GDP-bound HRAS wild-type protein to KD value for KRAS)” value is “A (a compound having 10 or more and less than 20 is denoted as A)”.

As to `CCO[C@@H]1C[C@H]2C(=O)NC3(CCC3)C(=O)N(C)[C@@H](C(CC)CC)C(=O)N(C)[C@H](C(=O)N3CCOCC3)CC(=O)N(C)[C@@H](CC3CC3)C(=O)N[C@@H]([C@@H](C)CC)C(=O)N(C)CC(=O)N(C)[C@H]3C/C=C\CCN(C3=O)[C@@H](Cc3ccc(F)cc3C)C(=O)N(C)CC(=O)N[C@@H](CCc3cc(F)c(C(F)(F)F)c(F)c3)C(=O)N2C1` [PP1526], in experiment [1], the IC50 came out at 118 nM. For the same compound, the “NRAS/KRAS (ratio of KD value for GDP-bound NRAS wild-type protein to KD value for KRAS)” value in experiment [2] was “A (a compound having 10 or more and less than 20 is denoted as A)”. The “HRAS/KRAS (ratio of KD value for GDP-bound HRAS wild-type protein to KD value for KRAS)” value in experiment [3] is “A (a compound having 10 or more and less than 20 is denoted as A)”.

For `CCO[C@@H]1C[C@H]2C(=O)NC3(CCC3)C(=O)N(C)[C@@H](C(CC)CC)C(=O)N(C)[C@H](C(=O)N3CCOCC3)CC(=O)N(C)[C@@H](CC3CC3)C(=O)N[C@@H]([C@@H](C)CC)C(=O)N(C)CC(=O)N(C)[C@H]3C/C=C\CCN(C3=O)[C@@H](Cc3ccc(F)cc3)C(=O)N(C)CC(=O)N[C@@H](CCc3cc(F)c(C(F)(F)F)c(F)c3)C(=O)N2C1` [PP1527], the IC50 in experiment [1] was 143 nM. The “NRAS/KRAS (ratio of KD value for GDP-bound NRAS wild-type protein to KD value for KRAS)” value in experiment [2] is “A (a compound having 10 or more and less than 20 is denoted as A)”. Further, in experiment [3], the “HRAS/KRAS (ratio of KD value for GDP-bound HRAS wild-type protein to KD value for KRAS)” value is “A (a compound having 10 or more and less than 20 is denoted as A)”.

Take `CCO[C@@H]1C[C@H]2C(=O)NC3(CCC3)C(=O)N(C)[C@@H](C3CCCC3)C(=O)N(C)[C@H](C(=O)N(C)C)CC(=O)N(C)[C@@H](CC3CC3)C(=O)N[C@@H]([C@@H](C)CC)C(=O)N(C)CC(=O)N(C)[C@H]3C/C=C\CCN(C3=O)[C@@H](Cc3ccc(F)cc3C)C(=O)N(C)CC(=O)N[C@@H](CCc3cc(F)c(C(F)(F)F)c(F)c3)C(=O)N2C1` [PP1528]: in experiment [1], the IC50 came out at 45.6 nM. The “NRAS/KRAS (ratio of KD value for GDP-bound NRAS wild-type protein to KD value for KRAS)” value in experiment [2] was “A (a compound having 10 or more and less than 20 is denoted as A)”. The “HRAS/KRAS (ratio of KD value for GDP-bound HRAS wild-type protein to KD value for KRAS)” value in experiment [3] is “B (a compound having 3 or more and less than 10 is denoted as B)”.
